Reference: ChEMBL document CHEMBL1124693, “Synthesis of the novel pi-(benzyloxymethyl)-protected histidine analogue of statine. Inhibition of penicillopepsin by pepstatin-derived peptides containing different statine side-chain derivatives” (J Med Chem, 1989)

Experiments:
[1] = test system: Penicillopepsin (Penicillium janthinellum); assay: Inhibitory activity against pencillopepsin
[2] = test system: Penicillopepsin (Penicillium janthinellum); assay: Slow binding kinetics after pre-incubation of enzyme and inhibitor for 10 min before substrate addition;+ indicates weak inhibition of penicillopepsin.

SMILES | Ki [1] | Slow binding [2]
CCOC(=O)C[C@H](O)[C@H](CCCN)NC(=O)[C@@H](NC(=O)[C@@H](NC(=O)CC(C)C)C(C)C)C(C)C | 1.1 nM | 
CCOC(=O)C[C@H](O)[C@H](CC(C)C)NC(=O)[C@H](NC(=O)[C@@H](NC(=O)CC(C)C)C(C)C)C(C)C | > 18000 nM | 
CCOC(=O)C[C@H](O)[C@H](Cc1ccccc1)NC(=O)[C@@H](NC(=O)[C@@H](NC(=O)CC(C)C)C(C)C)C(C)C | 15 nM | 
CCOC(=O)C[C@H](O)[C@H](CC(C)C)NC(=O)[C@@H](NC(=O)[C@@H](NC(=O)CC(C)C)C(C)C)C(C)C | 72 nM | 
COC(=O)C[C@H](O)[C@H](Cc1c[nH]cn1)NC(=O)[C@@H](NC(=O)[C@@H](NC(=O)CC(C)C)C(C)C)C(C)C | 4.5 nM | weak inhibition of porcine pepsin
